Where two headings read alike, the source gives them in different places. Marks after values point to notes of the source that are not given here.
Key:
[1] = ABTS cation radical scavenging activity; details: 50% free radical scavenging; for EC50: isolated components, read-out: SC50 ABTS
Description: The ABTS cation radical scavenging effect was measured, as previously described by. […] The working solution was diluted by EtOH to reach the absorbance of 0.70 ± 0.02 at 740 nm for further experiments. Different concentrations (400, 200, 100, 50, and 25 µg/mL) of extracts or compounds (10 µL) were mixed with the working solution (190 μL). The mixture was incubated at room temperature for 6 min, and the antioxidant activity of the mixture was determined by the decrease in absorbance measured at 740 nm.

α-glucosidase = test: α-Glucosidase inhibitory activity assay; format: biochemical; details: isolated compounds
Description: To test the anti-α-glucosidase effect of each solvent extract and each component, a previously described method was used. […] The α-glucosidase solution was diluted to 1 U/mL with 0.1 M sodium phosphate buffer (pH 6.8). Various concentrations of extract or compound (100 µL) and α-glucosidase solution (20 µL) were mixed. Subsequently, 0.53 mM p-NPG (380 µL) was added and incubated at 37 °C for 40 min. The reaction was stopped by adding 500 μL of 0.1 M Na2CO3 solution, and the absorbance was detected at 405 nm.
α-glucosidase inhibition (%) was counted as follows (Asample and Acontrol represent the absorbance of the tested sample and control, respectively):α-glucosidase inhibition (%) = (Acontrol − Asample)/Acontrol × 100%

[2] = molecular target: T1, inducible nitric oxide synthase (iNOS) (Mus musculus, UniProt P29477); test: Bioaffinity ultrafiltration assay with inducible nitric oxide synthase; format: binding; details: components of EtOAc extract; EF = (A1 − A2)/A0 × 100%
T1 construct: purchased Sigma-Aldrich (St. Louis, MO, USA)
Description: (§1) The bioaffinity ultrafiltration assay was conducted using a previously described procedure. […] The reaction was conducted at 37 °C for 30 min, then centrifuged using a 14,000× g ultracentrifuge filter at 30 °C for 15 min. The filtrate was removed and 200 μL of Tris-HCl buffer was added to the ultracentrifuge filter and centrifuged at 14,000× g for 15 min at 30 °C. The previous step was repeated 3 times and the filtrate was removed. Then, 200 μL of methanol was added to the ultracentrifuge filter and centrifuged at 14,000× g for 15 min at 30 °C. The previous step was repeated 3 times and the filtrate was collected. The filtrate was concentrated and then dissolved in 50 μL MeOH for HPLC analysis. In addition, the processing of iNOS-ligand complexes was conducted following previously reported methods, while inducible nitric oxide synthase bioaffinity ultrafiltration assays were performed, as detailed above.
(§2) The binding affinity of compounds and enzymes using enrichment factor (EF) was assessed, and was counted as follows: A1, A2, and A0 represent the peak areas of picked compounds acquired from the extracts incubated with activated, inactivated, and no acetylcholinesterase, respectively. EF (%) = (A1 − A2)/A0 × 100%

[3] = system: NO production in RAW 264.7 cells; test: Nitric oxide (NO) inhibition assay; format: cell-based, murine; details: Mus musculus
Description: In this experiment, the RAW 264.7 macrophage cell line was used. The cells were stored at −196 °C in liquid nitrogen. After thawing, the cells were cultured in DMEM at 37 °C and 5% CO2 supplemented with 10% FBS, […] L-glutamine, 1 mM sodium pyruvate, 100 μg/mL streptomycin, and 100 U/mL penicillin.
NO inhibition assay was slightly modified from the reported method. The day before the experiment, RAW 264.7 cells were seeded into 96-well plates with 2 × 10^4 cells per well. The cells were pretreated with the sample solution, and then incubated at 37 °C for 1 h. After incubation, the cells were treated with 100 ng/mL of LPS to induce an inflammatory response. After incubation at 37 °C for 20 h, 50 μL of the supernatant was transferred from each well to another 96-well plate and mixed with an equal volume of Griess reagent. Finally, the absorbance was acquired at 550 nm after 20 min of incubation.

[4] = Superoxide radical scavenging activity; details: 50% free radical scavenging; for EC50: isolated components, read-out: SC50 Superoxide
Description: A superoxide radical scavenging assay was performed based on previously reported methods. The superoxide radical was generated in 16 mM Tris-HCl buffer (pH 8.0) containing 50 μL of NBT (300 μM), 50 μL of PMS (120 μM), and 50 μL of different concentrations of the test sample. The reaction was initiated by adding 50 μL of NADH (468 μM) solution to the mixture. After incubating at room temperature for 5 min, the activity of samples was determined by the decrease in absorbance measured at 560 nm against the sample concentration.

[5] = DPPH radical scavenging activity; details: 50% free radical scavenging; for EC50: isolated components, read-out: SC50 DPPH
Description: The DPPH radical scavenging effect was measured based on the reported method. BHT was applied as a positive control. DPPH solution was prepared diluted by EtOH to reach the final concentration of 400 µM. Different concentrations (400, 200, 100, 50, and 25 µg/mL) of extracts or compounds (100 µL) were mixed with DPPH solution (100 µL) and incubated for 30 min at room temperature and in darkness, and the absorbance of the mixture was measured at 520 nm.

[6] = Ferric reducing antioxidant power (FRAP); details: mM Trolox equivalents per g
Description: FRAP was measured by the method reported in the previous literature. The working solution was mixed with acetate buffer (pH 3.6), ferric chloride solution (20 mM), and TPTZ solution (10 mM TPTZ in 40 mM HCl) at a proportion of 10:1:1, respectively, and freshly prepared before being used. A total of 900 μL of the working solution was warmed to 37 °C and then mixed with 100 μL of the diluted sample, blank or standard, in a microcentrifuge tube. The tubes were vortexed in a dry bath at 37 °C for 40 min. The absorbance was measured at 593 nm. The standard curve was linear between 0 and 100 mM Trolox. Results were expressed as mM TE/g dry weight. Additional dilution was needed if the FRAP value measured was over the linear range of the standard curve.

[7] = molecular target: T2, acetylcholinesterase (AChE) (Electrophorus electricus, UniProt O42275); test: biochemical
T2 construct: purchased Sigma-Aldrich (St. Louis, MO, USA)
T2 sequence (O42275 24-633): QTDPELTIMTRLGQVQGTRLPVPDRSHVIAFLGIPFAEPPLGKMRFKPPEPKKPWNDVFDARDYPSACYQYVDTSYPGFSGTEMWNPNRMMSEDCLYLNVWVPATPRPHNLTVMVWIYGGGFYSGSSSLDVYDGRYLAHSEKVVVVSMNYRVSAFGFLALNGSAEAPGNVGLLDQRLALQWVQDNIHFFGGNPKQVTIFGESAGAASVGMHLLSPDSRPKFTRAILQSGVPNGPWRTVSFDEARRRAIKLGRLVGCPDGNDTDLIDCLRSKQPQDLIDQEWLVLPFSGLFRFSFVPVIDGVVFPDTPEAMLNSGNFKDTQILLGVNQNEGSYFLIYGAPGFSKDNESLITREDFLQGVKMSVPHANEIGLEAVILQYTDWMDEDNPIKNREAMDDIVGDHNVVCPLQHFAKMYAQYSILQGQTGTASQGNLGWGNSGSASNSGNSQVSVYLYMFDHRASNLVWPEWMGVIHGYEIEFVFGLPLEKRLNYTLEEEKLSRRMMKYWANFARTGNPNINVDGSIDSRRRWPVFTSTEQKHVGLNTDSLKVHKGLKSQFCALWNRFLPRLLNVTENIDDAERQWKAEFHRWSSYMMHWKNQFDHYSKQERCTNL
Description: The acetylcholinesterase inhibitory assay was carried out applying a method described in reference. Briefly, 0.1 M sodium phosphate buffer (pH 8.0, 140 μL), DTNB (10 μL), sample (20 μL), and AChE solution (15 μL) were added to a 96-well microplate and incubated at room temperature for 10 min. Finally, the absorbance was detected with a spectrophotometer at 405 nm.
The acetylcholinesterase inhibitory effect was counted as follows (Asample and Acontrol represent the absorbance of the tested sample and control, respectively):Acetylcholinesterase inhibitory activity (%) = (Acontrol − Asample)/Acontrol × 100%

[8] = molecular target: T2, acetylcholinesterase (AChE); test: Bioaffinity ultrafiltration assay with acetylcholinesterase; format: binding; details: components of EtOAc extract; EF = (A1 − A2)/A0 × 100%
Description: as §1, §2

[9] = system: LPS-induced iNOS expression in RAW 264.7 murine macrophages; test: Western blotting of LPS-induced iNOS expression; format: cell-based; details: 50 μM; LPS-induced RAW 264.7; Western blot
Description: Western blotting was conducted with the previous procedure. Cells were treated with different concentrations of compounds and 100 ng/mL of LPS for a day. After rinsing cells with cold PBS, proteins were harvested with radioimmunoprecipitation assay buffer (RIPA buffer) and stored at −20 °C for succeeding procedure. Proteins were separated on a 12.5% SDS-polyacrylamide gel and then electrophoretically transferred to a PVDF membrane. The membrane was soaked in 2% bovine serum albumin (BSA) blocking buffer for 2 h, then washed 2–3 times with TBST. Proteins were treated by particular primary antibodies and immersed overnight. The following day, PVDF membranes were washed with TBST to remove residual primary antibodies, and then immersed with secondary antibodies for 2 h. Then, enhanced chemiluminescence solution was coated on the membrane and visualized using an ImageQuant LAS 4000 Mini Biomolecular Imager (GE Healthcare, Marlborough, MA, USA). Finally, we quantified band density by ImageJ software 1.53a (BioTechniques, New York, NY, USA).

[10] = RAW264.7, isolated components, LPS-treated RAW 264.7 cells, read-out: NO Inhibition IC50
[11] = isolated compounds, read-out: IC50 AChE (converted)

Row | SMILES | EC50 [1] [µM] | iNOS EF (enrichment factor) [2] [%] | EC50 [4] [µM] | EC50 [5] [µM] | TE FRAP ([6]; isolated components) | AChE EF (enrichment factor) [8] [%] | also measured
1 | COc1cc(O)cc(CCc2ccc(O)c(OC)c2)c1 [Gigantol (1), gigantol] | 12.2 ± 0.54 | 44.84 | > 400 | 35.2 ± 1.34 | 1483.20 ± 63.49 ^c mM/g | 54.60 | IC50 (α-glucosidase): 470 ± 28.5 µM; IC50 [3, 10]: 63.7 ± 11.4 µM; TE FRAP ([6]; isolated components, listed as gigantol): 1483.20 ± 63.49 mM/g; IC50 [7, 11]: 176 ± 19.1 µM
2 | COc1cc(CCc2cc(OC)c(O)c(OC)c2)ccc1O [Dendrophenol (4), dendrophenol] | 7.64 ± 0.63 | 65.11 | > 400 | 11.6 ± 0.77 | 1686.53 ± 16.61 ^c mM/g | 59.48 | IC50 (α-glucosidase): 608 ± 48.2 µM; IC50 [3, 10]: 14.3 ± 3.17 µM; TE FRAP ([6]; isolated components, listed as dendrophenol): 1686.53 ± 16.61 mM/g; inhibition of iNOS expression [9]: 89.82%; IC50 [7, 11]: 165 ± 13.2 µM
3 | COc1ccc2c(c1)CCc1cc(O)cc(OC)c1-2 [Coelonin] |  | 5.09 |  |  |  | 2.00 | 
4 | Oc1ccc(CCc2cc(O)cc(O)c2)cc1 [Dihydroresveratrol] |  | 0.62 |  |  |  | 0.08 | 
5 | Cc1cc(C(C)(C)C)c(O)c(C(C)(C)C)c1 [BHT, butylated hydroxytoluene, reference compound] | 53.7 ± 1.48 |  |  | 90.8 ± 5.65 | 4355.95 ± 99.23 mM/g |  | SC50 ABTS ([1]; solvent extracts): 46.83 ± 0.44 µg/mL; SC50 DPPH ([5]; solvent extracts): 36.64 ± 2.22 µg/mL; TE FRAP ([6]; solvent extracts): 4296.98 ± 48.40 mM/g
6 | COc1cc(O)cc(CCc2cccc(O)c2)c1 [Batatasin III (3), batatasin III] | 30.1 ± 1.7 | 27.18 | > 400 | > 400 | 559.67 ± 51.49 ^c mM/g | 31.87 | IC50 (α-glucosidase): 723 ± 53.5 µM; IC50 [3, 10]: 51.3 ± 5.51 µM; TE FRAP ([6]; isolated components, listed as batatasin III): 559.67 ± 51.49 mM/g; IC50 [7, 11]: 258 ± 18.5 µM
7 | O=C(/C=C/c1ccc(O)c(O)c1)O[C@@H]1C[C@](O)(C(=O)O)C[C@@H](O)[C@H]1O [Chlorogenic acid, chlorogenic acid, reference compound] |  |  |  |  |  |  | IC50 [7, 11]: 236 ± 15.9 µM; IC50 ([7]; solvent extracts, read-out: IC50 AChE (converted)): 214 µM
8 | COc1cc(O)cc2ccc3cccc(O)c3c12 [Moscatin (2), moscatin] | 10.3 ± 1.92 | 88.99 | > 400 | 26.7 ± 1.63 | 1396.40 ± 57.03 ^c mM/g | 66.31 | IC50 (α-glucosidase): 478 ± 33.4 µM; IC50 ([3]; RAW264.7, read-out: NO Inhibition IC50): 23.5 ± 3.16 µM; TE FRAP ([6]; isolated components, listed as moscatin): 1396.40 ± 57.03 mM/g; inhibition of iNOS expression [9]: 69.76%; IC50 [7]: 162 ± 16.5 µM
9 | COc1ccc(CCc2cc(OC)c(OC)c(OC)c2)cc1O [Erianin] |  | 1.72 |  |  |  | 0.23 | 
10 | O=c1c(O)c(-c2ccc(O)c(O)c2)oc2cc(O)cc(O)c12 [Quercetin, quercetin, reference compound] |  |  |  |  |  |  | IC50 [3, 10]: 23.1 ± 1.43 µM; IC50 ([3]; RAW264.7, solvent extracts, LPS-treated RAW 264.7 cells, read-out: NO Inhibition IC50): 6.98 ± 0.43 µg/mL
11 | COc1cc(CCc2cc(O)cc(O)c2)ccc1O [Tristin] |  | 0.95 |  |  |  | 5.83 | 
12 | Oc1ccc2c(c1)CCc1cc(O)cc(O)c1-2 [2,4,7-Trihydroxy-9,10-dihydrophenanthrene] |  | 0.91 |  |  |  | 1.32 | 
13 | COc1c(O)cc2ccc3cc(O)ccc3c2c1OC [Nudol] |  | 24.39 |  |  |  | 29.56 | 
14 | O=c1cc(-c2ccc(O)c(O)c2)oc2cc(O[C@@H]3O[C@H](CO)[C@@H](O)[C@H](O)[C@H]3O)cc(O)c12 [Cynaroside, cynaroside, reference compound] |  |  | 50.6 ± 2.62 |  |  |  | SC50 Superoxide ([4]; solvent extracts): 112.76 ± 5.84 µg/mL

Source: PMC11351458, “Bioaffinity Ultrafiltration Combined with HPLC-ESI-qTOF-MS/MS for Screening Potential Bioactive Components from the Stems of Dendrobium fimbriatum and In Silico Analysis” (Antioxidants, 2024)
